The target of test [1] is T1, SARS-CoV-2 PLpro (nsp3 1564–1878) (Severe acute respiratory syndrome coronavirus 2, UniProt P0DTD1). Description: biochemical. On the set-up: FRET-quenched peptide (Pro3) cleavage by PLpro, 10 min pre-incubation, slope over 20 min, normalised to no-compound control. As to conditions: read-out: % of control remaining.
Test [2] has as its target T1, SARS-CoV-2 PLpro (nsp3 1564–1878). Briefly: biochemical. On the set-up: FRET-quenched peptide (Pro3) cleavage by PLpro, 10 min pre-incubation, slope over 20 min, normalised to no-compound control. As to conditions: read-out: % of control remaining. The source holds these as a separate data set.

Where a name gives a salt, the structure may show the parent alone. Read-outs that look alike come from different tables or passages of the source.

As for `CCNC(=O)c1noc(-c2cc(Cl)c(O)cc2O)c1-c1ccc(OC)cc1` [VER-50589], in test [1] (Well no.=8670, high concentration screen), the remaining activity at 3.75 µM was determined as 97.5%. Moreover, in test [2] (Well no.=8670, low concentration screen), the remaining activity at 1.25 µM came to 95.3%.

Regarding `COc1cc2c(c(OC)c1OC)-c1c(cc(OC)c(OC)c1OC)C[C@H](C)[C@H](C)C2` [R(+)-Schisandrin A], in test [1] (Well no.=3741, high concentration screen), the remaining activity at 3.75 µM worked out at 93.8%. The remaining activity at 1.25 µM in test [2] (Well no.=3741, low concentration screen) turned out to be 91.7%.

Turning to `CO[C@H]1C[C@@H]2CC[C@@H](C)[C@@](O)(O2)C(=O)C(=O)N2CCCC[C@H]2C(=O)O[C@H]([C@H](C)C[C@@H]2CC[C@H](n3cnnn3)[C@H](OC)C2)CC(=O)[C@H](C)/C=C(\C)[C@@H](O)[C@@H](OC)C(=O)[C@H](C)C[C@H](C)/C=C/C=C/C=C/1C` [Zotarolimus], in test [1] (Well no.=8308, high concentration screen), the remaining activity at 3.75 µM turned out to be 91.2%. Moreover, the remaining activity at 1.25 µM in test [2] (Well no.=8308, low concentration screen) amounted to 90.2%.

For the compound `CCCCC[C@H](O)/C=C/[C@H]1OC(=O)C[C@H](O)[C@@H]1C/C=C\CCCC(=O)O` [11-Dehydro-thromboxane B2], in test [1] (Well no.=4288, high concentration screen), the remaining activity at 3.75 µM turned out to be 99.7%. In test [2] (Well no.=4288, low concentration screen), the remaining activity at 1.25 µM came out at 103%.

For the compound `CC(C)(C)c1cc(/C=C(\C#N)C(N)=S)cc(C(C)(C)C)c1O` [Tyrphostin AG 879], the remaining activity at 3.75 µM in test [1] (Well no.=1427, high concentration screen) was 85.7%. Further, the remaining activity at 1.25 µM in test [2] (Well no.=1427, low concentration screen) was 95.8%.

As for `O=c1ccn([C@@H]2O[C@H](COP(=O)(O)OP(=O)(O)O)[C@@H](O)[C@H]2O)c(=O)[nH]1` [Uridine 5'-diphosphate sodium], the remaining activity at 3.75 µM in test [1] (Well no.=1188, high concentration screen) came out at 104%. Moreover, the remaining activity at 1.25 µM in test [2] (Well no.=1188, low concentration screen) is 104%.

For the compound `C[C@@H](Oc1cc(NS(=O)(=O)N2CCC2)nc(SCc2cccc(F)c2F)n1)[C@@H](O)CO` [AZD-5069], the remaining activity at 3.75 µM in test [1] (Well no.=8409, high concentration screen) turned out to be 101%. The remaining activity at 1.25 µM in test [2] (Well no.=8409, low concentration screen) stood at 102%.

Regarding `COc1cc(NS(C)(=O)=O)ccc1Nc1c2ccccc2nc2ccccc12` [Amsacrine hydrochloride], the remaining activity at 3.75 µM in test [1] (Well no.=346, high concentration screen) was 103%. The remaining activity at 1.25 µM in test [2] (Well no.=346, low concentration screen) was found to be 97.8%.

With `Cc1ccc(-c2nn(C(C)(C)CNC(=O)c3ccncc3)c3ncnc(N)c23)cc1` [WEHI-345], the remaining activity at 3.75 µM in test [1] (Well no.=6690, high concentration screen) was found to be 96.2%. Further, the remaining activity at 1.25 µM in test [2] (Well no.=6690, low concentration screen) was 96.4%.

With `C[C@H](C#Cc1ccc(Cc2ccc(F)cc2)s1)N(O)C(N)=O` [N-{(1R)-3-[5-(4-fluorobenzyl)-2-thienyl]-1-methyl-2-propynyl}-N-hydroxyurea], in test [1] (Well no.=5434, high concentration screen), the remaining activity at 3.75 µM worked out at 103%. In addition, in test [2] (Well no.=5434, low concentration screen), the remaining activity at 1.25 µM is 99.4%.

Turning to `CCCCCCCCCCCC(=O)O` [Dodecanoic acid], the remaining activity at 3.75 µM in test [1] (Well no.=4256, high concentration screen) worked out at 94.8%. Besides, in test [2] (Well no.=4256, low concentration screen), the remaining activity at 1.25 µM came out at 101%.

For `N[C@@H](CCC(=O)N[C@@H](CS)C(=O)NCC(=O)O)C(=O)O` [Glutathione], the remaining activity at 3.75 µM in test [1] (Well no.=4049, high concentration screen) was found to be 100%. Further, in test [2] (Well no.=4049, low concentration screen), the remaining activity at 1.25 µM was determined as 99.4%.

In the case of `CN(C)CCCn1cc(C2=C(c3c[nH]c4ccccc34)C(=O)NC2=O)c2ccccc21` [GF 109203X - 2-[1-(3-Dimethylaminopropyl)indol-3-yl]-3-(indol-3-yl) maleimide], the remaining activity at 3.75 µM in test [1] (Well no.=2340, high concentration screen) is 106%. In test [2] (Well no.=2340, low concentration screen), the remaining activity at 1.25 µM turned out to be 103%.

With `CCCCC/C=C\C/C=C\C/C=C\CCCCCCC(=O)O` [8(Z), 11(Z), 14(Z)-Eicosatrienoic Acid], the remaining activity at 3.75 µM in test [1] (Well no.=4548, high concentration screen) was 96.4%. Also, the remaining activity at 1.25 µM in test [2] (Well no.=4548, low concentration screen) amounted to 91.1%.

As to `Nc1ncnc2c1c(I)cn2[C@@H]1O[C@H](CO)[C@@H](O)[C@H]1O` [5-Iodotubercidin], the remaining activity at 3.75 µM in test [1] (Well no.=2479, high concentration screen) came to 101%. The remaining activity at 1.25 µM in test [2] (Well no.=2479, low concentration screen) amounted to 100%.

For the compound `C[C@@]1(O)[C@H](O)[C@@H](CO)O[C@H]1n1ccc(N)nc1=O` [NM107], the remaining activity at 3.75 µM in test [1] (Well no.=8897, high concentration screen) is 100%. In addition, the remaining activity at 1.25 µM in test [2] (Well no.=8897, low concentration screen) is 99.5%.

Regarding `CN1C(=O)C(Cc2ccc3ccccc3c2)N=C(c2ccc(O)cc2)c2cc(Cl)ccc21` (centres unmarked) [Bz 423], the remaining activity at 3.75 µM in test [1] worked out at 93.6%. In addition, the remaining activity at 1.25 µM in test [2] came out at 96.5%.

As to `CN(C)Cc1ccc(-c2nc3cccc4c3n2CCNC4=O)cc1` [AG14361], the remaining activity at 3.75 µM in test [1] (Well no.=5272, high concentration screen) stood at 97.3%. In test [2] (Well no.=5272, low concentration screen), the remaining activity at 1.25 µM was 98.1%.

Turning to `CC(C)COc1ccc(CNC(=O)N(Cc2ccc(F)cc2)C2CCN(C)CC2)cc1` [Pimavanserin tartrate], the remaining activity at 3.75 µM in test [1] (Well no.=6989, high concentration screen) worked out at 102%. Besides, in test [2] (Well no.=6989, low concentration screen), the remaining activity at 1.25 µM worked out at 103%.

For the compound `COc1cc(C(=O)NCc2ccc(OCCN(C)C)cc2)cc(OC)c1OC` [Trimethobenzamide hydrochloride], the remaining activity at 3.75 µM in test [1] (Well no.=8493, high concentration screen) was 91.3%. The remaining activity at 1.25 µM in test [2] (Well no.=8493, low concentration screen) was determined as 90.1%.

On to `C[C@H](NC(=O)c1cc(Cl)ccc1Oc1ccc(F)cc1)c1ccc(C(=O)O)cc1` [CJ-42794], for which the remaining activity at 3.75 µM in test [1] (Well no.=6222, high concentration screen) was 94.2%. Also, the remaining activity at 1.25 µM in test [2] (Well no.=6222, low concentration screen) turned out to be 98%.

`O=P(O)(O)C(Cl)(Cl)P(=O)(O)O` [Clodronic acid]: the remaining activity at 3.75 µM in test [1] (Well no.=737, high concentration screen) was 96.9%; in test [1] (Well no.=1862, high concentration screen) it was 90.7%. The remaining activity at 1.25 µM was found to be 95.6% in test [2] (Well no.=737, low concentration screen) and 92.6% in test [2] (Well no.=1862, low concentration screen).

For the compound `FC(F)(F)c1cccc(C2=CCN(CCc3ccc4ccccc4c3)CC2)c1` [Xaliproden hydrochloride], the remaining activity at 3.75 µM in test [1] (Well no.=5767, high concentration screen) was 105%. The remaining activity at 1.25 µM in test [2] (Well no.=5767, low concentration screen) amounted to 106%.

`Cc1[nH]c(=O)c(C#N)cc1-c1ccncc1` [Milrinone]: the remaining activity at 3.75 µM in test [1] (Well no.=832, high concentration screen) came out at 101%; in test [1] (Well no.=2150, high concentration screen), 97.1%. Further, the remaining activity at 1.25 µM in test [2] (Well no.=832, low concentration screen) was 101%; in test [2] (Well no.=2150, low concentration screen), 95.5%.

As to `Cc1cc(-c2ccc(N=Nc3c(S(=O)(=O)O)cc4cc(S(=O)(=O)O)cc(N)c4c3O)c(C)c2)ccc1N=Nc1c(S(=O)(=O)O)cc2cc(S(=O)(=O)O)cc(N)c2c1O` [Diphenyl Blue], the remaining activity at 3.75 µM in test [1] (Well no.=7598, high concentration screen) came to 89.2%. The remaining activity at 1.25 µM in test [2] (Well no.=7598, low concentration screen) is 89.8%.

As to `C[C@@H]1C/C=C/C=C/C=C/C=C/[C@H](O[C@@H]2O[C@H](C)[C@@H](O)[C@H](N)[C@@H]2O)C[C@@H]2O[C@](O)(C[C@@H](O)C[C@H]3O[C@@H]3/C=C/C(=O)O1)C[C@H](O)[C@H]2C(=O)O` [Pimaricin], in test [1] (Well no.=3703, high concentration screen), the remaining activity at 3.75 µM came out at 102%. Besides, the remaining activity at 1.25 µM in test [2] (Well no.=3703, low concentration screen) was 96.5%.

In the case of `COc1ccc(Cl)cc1NC(=O)Nc1cc(C)nc2ccccc12` [N-(5-Chloro-2-methoxyphenyl)-N'-(2-methyl-4-quinolinyl)urea], the remaining activity at 3.75 µM in test [1] (Well no.=2626, high concentration screen) was found to be 101%. Besides, the remaining activity at 1.25 µM in test [2] (Well no.=2626, low concentration screen) stood at 100%.

As to `[2H]C([2H])([2H])NC[C@H](O)c1cccc(O)c1` [(R)-(-)-Phenylephrine (hydrochloride)], the remaining activity at 3.75 µM in test [1] (Well no.=6707, high concentration screen) was 95.4%. The remaining activity at 1.25 µM in test [2] (Well no.=6707, low concentration screen) was 98.6%.

As to `COc1ccccc1N1CCNCC1` [1-(2-Methoxyphenyl)piperazine hydrochloride], the remaining activity at 3.75 µM in test [1] (Well no.=1181, high concentration screen) came out at 102%. Also, in test [2] (Well no.=1181, low concentration screen), the remaining activity at 1.25 µM was 104%.

The values above are taken from article PMC8286840, “Identifying SARS-CoV-2 antiviral compounds by screening for small molecule inhibitors of Nsp3 papain-like protease” (Biochemical Journal, 2021).
